Molecules are shown by their SMILES. Values after ≈ are worked out from the molar mass of the structure shown. Where two headings read alike, the source gives them in different places. Peptide text beside a SMILES is read from it.

The subject of test [1] is Bacillus subtilis CMCC 63501. In kind it is cell-based. Particulars: CMCC 63501, 18 h. Here is the method: (§1) The peptide antibacterial activity was determined against both gram-positive and gram-negative bacteria strains, including Escherichia coli ATCC 25922, Escherichia coli UB1005, Salmonella enterica serovar typhimurium C77-31, Staphylococcus aureus ATCC 29213, Staphylococcus aureus ATCC 25923, Bacillus subtilis CMCC 63501, and Staphylococcus epidermidis ATCC 12228. Clinically isolated Escherichia coli EC183 was provided by the 4th Affiliated Hospital of Harbin Medical University. MIC of the peptides was measured using a modified version of the National Committee for Clinical Laboratory Standards (NCCLS) broth microdilution method as described previously. The bacterial strains were inoculated and grown to mid-log phase in fresh Mueller-Hinton broth (MHB) at 37 °C. Bacterial inoculum suspensions were prepared at a final concentration of approximately 1 × 10^5 CFU/ml. Peptides were 2-fold serially diluted to make different concentrations, from 0.5 to 256 μM. Equal volumes of inoculum suspensions were then added to each well of a sterile 96-well plate with different concentrations of peptides, and the plate was incubated for 18 h at 37 °C. Broth with or without bacteria was employed as the positive control or the negative control, respectively. MIC was defined as the lowest concentration of peptides that prevented visible turbidity by visual inspection. […] After overnight incubation at 37 °C, MBC was defined as the lowest concentration of peptides that killed at least 99.9% of the initial inoculums. Experiments were performed in triplicate with three biological replicates.

Test [2] relates to Clinically isolated Escherichia coli EC183. Type of test: cell-based. The following applies: Clinically isolated EC183, 18 h. As for the experimental part:
as §1

Test [3] relates to Escherichia coli ATCC 25922. Type of test: cell-based. The following applies: ATCC 25922, 18 h. Here is the method: as §1
Another test has as its system Escherichia coli UB1005. Type of test: cell-based. Particulars: UB1005, 18 h. Here is the method: as §1
The subject of test [4] is Salmonella enterica serovar typhimurium C77-31. In kind it is cell-based. The following applies: three independent experiments. As for the experimental part:
as §1

Test [5] concerns Staphylococcus aureus ATCC 25923. Type of test: cell-based. The following applies: ATCC 25923, 18 h. As for the experimental part:
as §1

Test [6] has as its system Staphylococcus aureus ATCC 29213. In kind it is cell-based. The following applies: ATCC 29213, 18 h. As for the experimental part:
as §1

Test [7] has as its system Staphylococcus epidermidis ATCC 12228. Type of test: cell-based. The following applies: ATCC 12228, 18 h. As for the experimental part:
as §1

Test [8] relates to Candida albicans CGMCC 2.2086. Nature of the test: microbe, parasite or virus in culture. In kind it is cell-based. The source says:
(§2) The antifungal activities were monitored in RPMI-1640 broth medium by a 2-fold microdilution assay according to the Clinical and Laboratory Standards Institute (CLSI) methods. The Candida albicans CGMCC 2.2086, Candida tropicalis CGMCC 2.1975, and Candida krusei CGMCC 2.1857 fungal strains were purchased from the China General Microbiological Culture Collection Center (CGMCC, Beijing, China). Clinically isolated Candida albicans CA2761 was provided by the 4th Affiliated Hospital of Harbin Medical University. Briefly, fungal strains were cultured on YPD agar plates (1% peptone, 0.5% yeast extract, 1% glucose and 2% agar) at 28 °C to prepare Candida suspensions with a turbidity of a 0.5 McFarland standard. A total of 50 μl inoculum cell suspension diluted in RPMI-1640 broth medium was added to an equal volume of peptide solution to achieve a final peptide concentrations ranging from 0.25 μM to 128 μM in a 96-well plate. Pure broth alone or with inoculum suspensions was used as the negative control or the positive control, respectively. The plate was incubated at 28 °C for 48 h. MIC was considered the lowest concentration at which no fungal growth was visually observed under experimental conditions. […] After 48 h incubation at 28 °C, MFC was defined as the lowest concentration of peptides that killed at least 99.9% of the initial inoculums. Experiments were performed in triplicate with three biological replicates.

Test [9] deals with Candida krusei CGMCC 2.1857. Nature of the test: microbe, parasite or virus in culture. In kind it is cell-based.
Source text: as §2

The test system of test [10] is Candida tropicalis CGMCC 2.1975. In words: microbe, parasite or virus in culture. Type of test: cell-based.
Source text: as §2

Test [11] concerns C. albicans CA276 (clinical isolate). In words: microbe, parasite or virus in culture. Type of test: cell-based, Candida albicans.
Source text: as §2

A word on the MFC: it is the lowest tested concentration that kills the fungus rather than only halting it. Turning to `CC[C@H](C)[C@H](NC(=O)[C@H](Cc1c[nH]c2ccccc12)NC(=O)[C@H](CCCCN)NC(=O)[C@H](CC(C)C)NC(=O)[C@@H](NC(=O)[C@H](CCCCN)NC(=O)CNC(=O)[C@@H](NC(=O)[C@H](CCCCN)NC(=O)[C@H](CCCCN)NC(=O)[C@H](CC(C)C)NC(=O)[C@H](CCCNC(=N)N)NC(=O)[C@H](CCCCN)NC(=O)[C@H](CCCNC(=N)N)NC(=O)[C@@H](NC(=O)[C@H](CCCCN)NC(=O)[C@H](CCCCN)NC(=O)[C@H](CCCNC(=N)N)NC(=O)[C@H](CC(C)C)NC(=O)[C@H](CCCNC(=N)N)NC(=O)[C@@H](N)CCCNC(=N)N)[C@@H](C)O)[C@@H](C)CC)C(C)C)C(N)=O` [RI21] (H-RRLRKKTRKRLKKIGKVLKWI-NH2), in [1], the “MBC B. subtilis 63501” value was determined as 4 µM (≈ 10.8 µg/mL) and the “MIC B. subtilis 63501” value was found to be 1 µM (≈ 2.7 µg/mL). Also, in test [2], the “MBC E. coli EC183” value came to 2 µM (≈ 5.41 µg/mL) and the “MIC E. coli EC183” value came out at 1 µM (≈ 2.7 µg/mL). Further, in test [3], the “MBC E. coli 25922” value is 8 µM (≈ 21.6 µg/mL) and the “MIC E. coli 25922” value stood at 2 µM (≈ 5.41 µg/mL). Further, in the test on Escherichia coli UB1005, the MBC E. coli 1005 was 2 µM (≈ 5.41 µg/mL) and the MIC E. coli 1005 came out at 2 µM (≈ 5.41 µg/mL). The “MIC S. typhi C77-31” value in test [4] (broth microdilution, MHB, ~1 × 10^5 CFU/ml, 18 h at 37 °C, visual) was 1 µM (≈ 2.7 µg/mL). Further, the “MBC S. typhi C77-31” value in test [4] (lowest concentration killing at least 99.9% of initial inoculum) was determined as 2 µM (≈ 5.41 µg/mL). Besides, in test [5], the MBC S. aureus 25923 worked out at 4 µM (≈ 10.8 µg/mL) and the MIC S. aureus 25923 came to 4 µM (≈ 10.8 µg/mL). Besides, in [6], the MBC S. aureus 29213 came to 4 µM (≈ 10.8 µg/mL) and the MIC S. aureus 29213 came to 4 µM (≈ 10.8 µg/mL). For the same compound, in [7], the “MBC S. epidermidis 12228” value was determined as 8 µM (≈ 21.6 µg/mL) and the “MIC S. epidermidis 12228” value amounted to 4 µM (≈ 10.8 µg/mL). For the same compound, the MFC in test [8] (CGMCC 2.2086, 48 h, read-out: MFC C. albicans 2.2086) is reported as 16 µM (≈ 43.3 µg/mL). Besides, the MIC in test [8] (CGMCC 2.2086, 48 h, read-out: MIC C. albicans 2.2086) turned out to be 8 µM (≈ 21.6 µg/mL). The minimum fungicidal concentration (MFC) in test [9] (CGMCC 2.1857, 48 h, read-out: MFC C. krusei 2.1857) is given as 4 µM (≈ 10.8 µg/mL). The MIC in [9] (CGMCC 2.1857, 48 h, read-out: MIC C. krusei 2.1857) amounted to 2 µM (≈ 5.41 µg/mL). For the same compound, the minimum fungicidal concentration (MFC) in [10] (CGMCC 2.1975, 48 h, read-out: MFC C. tropicalis 2.1975) is reported as 2 µM (≈ 5.41 µg/mL). Also, the MIC in test [10] (CGMCC 2.1975, 48 h, read-out: MIC C. tropicalis 2.1975) is listed as 1 µM (≈ 2.7 µg/mL). Moreover, in [11] (CA276 (clinical isolate, 48 h)), the MFC was 32 µM (≈ 86.5 µg/mL) and the MIC came to 8 µM (≈ 21.6 µg/mL).

Take `C[C@@H]1[C@H](O)[C@@H](C)/C=C/C=C/C=C/C=C/C=C/C=C/C=C/[C@H](O[C@@H]2O[C@H](C)[C@@H](O)[C@H](N)[C@@H]2O)C[C@@H]2O[C@](O)(C[C@@H](O)C[C@@H](O)[C@H](O)CC[C@@H](O)C[C@@H](O)CC(=O)O[C@H]1C)C[C@H](O)[C@H]2C(=O)O` [Amphotericin B, reference compound]: the MIC came out at 0.25 µM (≈ 0.231 µg/mL) in test [8] (Candida albicans, CGMCC2, CLSI 2-fold microdilution, RPMI-1640, 28 °C for 48 h, visual, three independent experiments); 1 µM (≈ 0.924 µg/mL) in [9] (Pichia kudriavzevii, CGMCC2, CLSI 2-fold microdilution, RPMI-1640, 28 °C for 48 h, visual, three independent experiments); 0.25 µM (≈ 0.231 µg/mL) in test [10] (Candida tropicalis, CGMCC2, CLSI 2-fold microdilution, RPMI-1640, 28 °C for 48 h, visual, three independent experiments); 0.5 µM (≈ 0.462 µg/mL) in test [11] (Candida albicans, CLSI 2-fold microdilution, RPMI-1640, 28 °C for 48 h, visual, three independent experiments). Further, the MFC in test [8] (Candida albicans, CGMCC2, lowest concentration killing at least 99.9% of initial inoculum, YPD agar, 48 h at 28 °C, three independent experiments) was 0.25 µM (≈ 0.231 µg/mL); in test [9] (Pichia kudriavzevii, CGMCC2, lowest concentration killing at least 99.9% of initial inoculum, YPD agar, 48 h at 28 °C, three independent experiments) it was 1 µM (≈ 0.924 µg/mL); in [10] (Candida tropicalis, CGMCC2, lowest concentration killing at least 99.9% of initial inoculum, YPD agar, 48 h at 28 °C, three independent experiments), 1 µM (≈ 0.924 µg/mL); in test [11] (Candida albicans, lowest concentration killing at least 99.9% of initial inoculum, YPD agar, 48 h at 28 °C, three independent experiments), 1 µM (≈ 0.924 µg/mL).

For the origin of these results see article PMC4890124, “Antimicrobial activity, improved cell selectivity and mode of action of short PMAP-36-derived peptides against bacteria and Candida” (Scientific Reports, 2016).
